The values that follow come from US20080249141A1, “Co-therapy with and combinations of statins and 1,4-dihydropyridine-3,5-dicarboxydiesters” (priority 2007, published 2008).

For the test the following is noted: patient.

With `CC(C)c1c(C(=O)Nc2ccccc2)c(-c2ccccc2)c(-c2ccc(F)cc2)n1CC[C@@H](O)C[C@@H](O)CC(=O)[O-].CC(C)c1c(C(=O)Nc2ccccc2)c(-c2ccccc2)c(-c2ccc(F)cc2)n1CC[C@@H](O)C[C@@H](O)CC(=O)[O-].[Ca+2]` [amorphous atorvastatin calcium], the “therapeutic effectiveness after change from crystalline atorvastatin calcium” value (20 mg once daily with 10 mg amlodipine) was “without change in the therapeutic effectiveness”.

Regarding `CC(C)c1c(C(=O)Nc2ccccc2)c(-c2ccccc2)c(-c2ccc(F)cc2)n1CC[C@@H](O)C[C@@H](O)CC(=O)[O-].CC(C)c1c(C(=O)Nc2ccccc2)c(-c2ccccc2)c(-c2ccc(F)cc2)n1CC[C@@H](O)C[C@@H](O)CC(=O)[O-].[Ca+2]` [crystalline atorvastatin calcium], the therapeutic effect entry (20 mg once a day, co-administered 10 mg amlodipine once daily) is recorded as “good therapeutic effect”.
